Assay results published in patent publication US20090131354A1, “miR-126 REGULATED GENES AND PATHWAYS AS TARGETS FOR THERAPEUTIC INTERVENTION” (priority 2007, published 2009).

How the values were obtained:
Type in all cases: cell-based, human
H1650 lung cancer cells = assay: Alamar Blue proliferation assay, H1650
From the text: (§1) The inventors assessed the therapeutic effect of hsa-miR-126 for lung cancer by using 11 individual lung cancer cell lines. To measure cellular proliferation of lung cancer cells, the following non-small cell lung cancer (NSCLC) cells were used: cells derived from lung adenocarcinoma (A549, H1299, H522, H838, Calu-3, HCC827, HCC2935), cells derived from lung squamous cell carcinoma (H520, H226), cells derived from lung bronchioalveolar carcinoma (H1650), and cells derived from lung large cell carcinoma (H460). Synthetic hsa-miR-126 (Pre-miR™-hsa-miR-126, Ambion cat. no. AM17100) or negative control (NC) miRNA (Pre-miR™ microRNA Precursor Molecule-Negative Control #2; Ambion cat. no. AM17111) was delivered via lipid-based transfection into A549, H1299, H522, H838, Calu-3, HCC827, HCC2935, H520, H1650, and H460 cells, and via electroporation into H226 cells.
(§2) Lipid-based reverse transfections were carried out in triplicate according to a published protocol (Ovcharenko et al., 2005) and the following parameters: Cells (5,000-12,000 per 96 well), 0.1-0.2 μl Lipofectamine™ 2000 (cat. no. 11668-019, Invitrogen Corp., Carlsbad, Calif., USA) in 20 μl OptiMEM (Invitrogen), 30 nM final concentration of miRNA in 100 μl. Electroporation of H226 cells was carried out using the BioRad Gene Pulser Xcell™ instrument (BioRad Laboratories Inc., Hercules, Calif., USA) with the following settings: 5×10^6 cells with 5 μg miRNA in 200 μl OptiMEM (1.6 μM miRNA), square wave pulse at 250 V for 5 ms. Electroporated H226 cells were seeded at 7,000 cells per 96-well in a total volume of 100 μl. All cells except for Calu-3 cells were harvested 72 hours post transfection or electroporation for assessment of cellular proliferation. Calu-3 cells were harvested 10 days post transfection. Proliferation assays were performed using Alamar Blue (Invitrogen) following the manufacturer's instructions. As a control for inhibition of cellular proliferation, siRNA against the motor protein kinesin 11, also known as Eg5, was used. […]

H522 lung cancer cells = assay: Alamar Blue proliferation assay, H522; conditions: relative to NC miRNA (100%)
From the text: as §1, §2

A549 lung cancer cells = assay: Alamar Blue proliferation assay, A549
From the text: as §1, §2

H460 lung cancer cells = assay: Pair-wise miRNA combinations, Alamar Blue proliferation; conditions: for % proliferation: mock-transfected cells, 48 h
From the text: miRNAs function in multiple pathways controlling multiple cellular processes. Cancer cells frequently show aberrations in several different pathways, which determine their oncogenic properties. […] The inventors assessed the efficacy of pair-wise miRNA combinations, administering hsa-miR-126 concurrently with either hsa-miR-34a, hsa-miR-124a, hsa-miR-147, hsa-let-7b, hsa-let-7c or hsa-let-7g (Pre-miR™ miRNA, Ambion cat. no. AM17100). H460 lung cancer cells were transiently reverse-transfected in triplicates with each miRNA at a final concentration of 300 pM, resulting in 600 pM of oligonucleotide. For negative controls, 600 pM of Pre-miR™ microRNA
Precursor Molecule-Negative Control #2 (Ambion cat. no. AM17111) were used. To correlate the effect of various combinations with the effect of the sole miRNA, each miRNA at 300 pM was also combined with 300 pM negative control miRNA. Reverse transfection was carried using the following parameters: 7,000 cells per 96 well, 0.15 μl Lipofectamine™ 2000 (Invitrogen) in 20 μl OptiMEM (Invitrogen), 100 μl total transfection volume. As an internal control for the potency of miRNA, etoposide was added at 10 μM and 50 μM to mock-transfected cells, 24 hours after transfection for the following 48 hours. Cells were harvested 72 hours after transfection and subjected to Alamar Blue assays (Invitrogen). Percent proliferation values from the Alamar Blue assay were normalized to those obtained from cells treated with 600 pM negative control miRNA. Data are expressed as % proliferation relative to negative control miRNA-treated cells (Table 8).
Additive activity of pair-wise combinations (e.g. hsa-miR-126 plus hsa-let-7b) is defined as an activity that is greater than the sole activity of each miRNA (e.g., the activity of hsa-miR-126 plus hsa-let-7b is greater than that observed for hsa-miR-126 plus NC and the activity of hsa-miR-126 plus hsa-let-7b is greater than that observed for hsa-let-7b plus NC). […]

HCC827 lung cancer cells = assay: Alamar Blue proliferation assay, HCC827; conditions: relative to NC miRNA (100%)
From the text: as §1, §2

Compound	% proliferation (H1650 lung cancer cells; H1650, 30 nM, 72 h, relative to NC miRNA (100%)) [%]	% proliferation (H522 lung cancer cells; H522, 30 nM, 72 h) [%]	% proliferation (A549 lung cancer cells; A549, 30 nM, 72 h, relative to NC miRNA (100%)) [%]	reduction of proliferation (H460 lung cancer cells; H460, 300 pM) [%]	% proliferation (HCC827 lung cancer cells; HCC827, 30 nM, 72 h) [%]	% proliferation (H1650 lung cancer cells; H1650, 10 μM, relative to NC miRNA (100%)) [%]	% proliferation (H1650 lung cancer cells; H1650, relative to NC miRNA (100%)) [%]	% proliferation (H522 lung cancer cells; H522, 10 μM) [%]	% proliferation (H522 lung cancer cells; H522, 50 μM) [%]	% proliferation (A549 lung cancer cells; A549, 50 μM, relative to NC miRNA (100%)) [%]	% proliferation (A549 lung cancer cells; A549, relative to NC miRNA (100%)) [%]	% proliferation (H460 lung cancer cells; H460, 10 μM) [%]	% proliferation (H460 lung cancer cells; H460, 50 μM) [%]	% proliferation (HCC827 lung cancer cells; HCC827, 30 nM) [%]	% proliferation (HCC827 lung cancer cells; HCC827, 10 μM) [%]
hsa-miR-126 (UCGUACCGUGAGUAAUAAUGC; synthetic pre-miR form, further chemistry not given here) [Synthetic hsa-miR-126 (Pre-miR™-hsa-miR-126, Ambion cat. no. AM17100)]	80.67	74.62	84.30	10.54	84.31										
COc1cc([C@@H]2c3cc4c(cc3[C@@H](O[C@@H]3O[C@@H]5CO[C@@H](C)O[C@H]5[C@H](O)[C@H]3O)[C@H]3COC(=O)[C@H]23)OCO4)cc(OC)c1O [etoposide]						90.98	60.31	82.13	61.08	42.18	49.13	20.19	14.94	82.53	98.95
